Data from patent US4146614A, “Threonyl-valyline leucine containing peptides and pharmaceutical compositions” (State of Michigan, priority 1977, dated 1979).
Non-standard residues stand in square brackets, D forms with d. Residues, ends and D or L forms follow the SMILES beside them. *: point of attachment. Bn = c1ccc(C*)cc1

Experiments:
tryptophan uptake = assay: Tryptophan uptake inhibition (tryptophan uptake method)
Procedure: Each of the resultant 10 fractions is assayed according to the tryptophan uptake method described in Biological Psychiatry, Vol. 7, No. 1, p. 53, (1973) as an indication of the amount of anti-S protein factor therein.
Tryptophan uptake are also conducted for the tested polypeptides. The tryptophan uptake inhibition is determined at 10 minutes.

alpha-helical S-protein = assay: Intracranial self-stimulation (bar pressing) in rats given alpha-helical S-protein; format: in vivo; conditions: for Bar Presses Restoration %: alpha-helical S-protein intercisternally, polypeptide 0.2 mg/kg intramuscularly
[1] = system: S-protein of schizophrenics; assay: Conversion of alpha-helical S-protein to random chain conformation; format: biochemical, human
[2] = Activity useful for alleviating the symptoms of schizophrenia (test not specified)
Procedure: Following essentially the same procedures as described above, N-acetyl-tyrosylthreonylvalylleucine, prolylthreonylvalylleucylprolylglycine are tested to determine their effect on rats which have been administered the alpha-helical S-protein.

Compound | Tryptophan Uptake Inhibition % (tryptophan uptake; determined at 10 minutes) | Bar Presses Restoration % (alpha-helical S-protein; rats) | further results
CC(C)C[C@H](NC(=O)[C@@H](NC(=O)[C@@H](NC(=O)[C@@H](C)N)[C@@H](C)O)C(C)C)C(=O)O [D-Alanyl-L-threonyl-L-valyl-L-leucine] (H-[dA]TVL-OH) | 15% |  | duration of tryptophan uptake inhibition (in words) (tryptophan uptake; 10, 15 and 30 minutes): after a period of time the inhibition of tryptophan uptake may be diminished; Tryptophan Uptake Inhibition % (tryptophan uptake; 15 min.): 16%; Tryptophan Uptake Inhibition % (tryptophan uptake; 30 min.): 0%
NCC(=O)NCC(=O)NCC(=O)O [Glycylglycylglycine, reference compound] (H-Gly-Gly-Gly-OH) | 0% | 3% | 
CC(C)C[C@H](NC(=O)[C@@H](NC(=O)[C@@H](NC(=O)CN)[C@@H](C)O)C(C)C)C(=O)O [Glycylthreonylvalylleucine] (H-GTVL-OH) | 24.3% | 100% | 
CC(C)C[C@@H](NC(=O)[C@@H](NC(=O)[C@@H](N)[C@@H](C)O)C(C)C)C(=O)O [L-Threonyl-L-valyl-D-leucine] (H-Thr-Val-[dL]-OH) | 12% |  | Tryptophan Uptake Inhibition % (tryptophan uptake; 15 min.): 18%; Tryptophan Uptake Inhibition % (tryptophan uptake; 30 min.): 21%
CC(C)C[C@H](NC(=O)[C@@H](NC(=O)[C@@H](N)[C@@H](C)O)C(C)C)C(=O)N[C@H](C)C(=O)O [L-Threonyl-L-valyl-L-leucyl-D-alanine] (H-TVL[dA]-OH) | 2% |  | tryptophan uptake activity (in words) (tryptophan uptake): without significant tryptophan uptake activity
CC(=O)N[C@H](C(=O)N[C@H](C(=O)N[C@@H](CC(C)C)C(N)=O)C(C)C)[C@@H](C)O [N-Acetyl-threonylvalylleucinamide] (Ac-Thr-Val-Leu-NH2) | 56.5% | 100% | 
CC(=O)N[C@H](C(=O)N[C@H](C(=O)N[C@@H](CC(C)C)C(=O)O)C(C)C)[C@@H](C)O [N-Acetyl-threonylvalylleucine] (Ac-Thr-Val-Leu-OH) | 20.2% | 100% | 
CC(C)C[C@H](NC(=O)[C@@H](NC(=O)[C@@H](N)[C@@H](C)OCc1ccccc1)C(C)C)C(N)=O [O-Benzyl-threonylvalylleucinamide] (H-Thr(Bn)-Val-Leu-NH2) | 0% | toxic | 
CC(C)C[C@H](NC(=O)[C@@H](NC(=O)[C@@H](NC(=O)[C@@H]1CCCN1C(=O)[C@@H](N)Cc1ccccc1)[C@@H](C)O)C(C)C)C(=O)N1CCC[C@H]1C(=O)N[C@@H](Cc1ccccc1)C(=O)O [Phenylalanylprolylthreonylvallylleucylprolyl phenylalanine] (H-FPTVLPF-OH) | 39.5% | 100% | 
CC(C)C[C@H](NC(=O)[C@@H](NC(=O)[C@@H](NC(=O)[C@@H]1CCCN1)[C@@H](C)O)C(C)C)C(=O)N1CCC[C@H]1C(=O)NCC(=O)O [Prolylthreonylvalylleucylprolylgylcine] (H-PTVLPG-OH) | 44.2% |  | restoration of the bar pressing activity of the rats (in words) (alpha-helical S-protein; rats administered the alpha-helical S-protein): restores the bar pressing activity of the rats
CC[C@H](C)[C@H](NC(=O)[C@@H](NC(=O)[C@@H](N)[C@@H](C)O)C(C)C)C(=O)O [Threonylvalylisoleucine] (H-Thr-Val-Ile-OH) | 5.6% | 41% | 
CC(C)C[C@H](NC(=O)[C@@H](NC(=O)[C@@H](N)[C@@H](C)O)C(C)C)C(N)=O [Threonylvalylleucinamide] (H-Thr-Val-Leu-NH2) | 21.6% | 90% | 
CC(C)C[C@H](NC(=O)[C@@H](NC(=O)[C@@H](N)[C@@H](C)O)C(C)C)C(=O)O [Threonylvalylleucine] (H-Thr-Val-Leu-OH) | 19.8% | 85% | period of effectiveness in counteracting the effect of the S-protein (alpha-helical S-protein; rats): of short duration; activity against the S-protein of schizophrenics (conformation change, in words) [1]: the alpha-helical conformation of the S-protein is converted to the random form
CC(C)C[C@H](NC(=O)[C@@H](NC(=O)[C@@H](N)[C@@H](C)O)C(C)C)C(=O)N[C@@H](CCCNC(=N)N)C(=O)O [threonylvalylleucylarginine] (H-TVLR-OH) |  |  | activity useful for alleviating the symptoms of schizophrenia (in words) [2]: exhibiting activity useful for alleviating the symptoms of schizophrenia
N-α-Acetyl-Threonylvalyleucine, methyl ester | 24.2% |  | 
